Values quoted from earlier work in patent US7772273B2 (LifeCycle Pharma A/S, priority 2006, dated 2010).
Like-named read-outs stand apart in the source and are kept apart here.

How the values were obtained:
[1] = at 25° C.
[2] = oral

SMILES | Water solubility [1] | Systemic availability of HMG-CoA reductase inhibitory activity [2] | LDL-C reduction (LDL-C; given with or without food) | LDL-C reduction (LDL-C; regardless of the time of day of drug administration)
NC(CO)(CO)CO [Trometamol, 2-amino-2-(hydroxymethyl)-1,3-propanediol] | about 550 mg/mL | – | – | –
CC(C)c1c(C(=O)Nc2ccccc2)c(-c2ccccc2)c(-c2ccc(F)cc2)n1CCC(O)CC(O)CC(=O)O (stereo not drawn) [atorvastatin, 2-(4-fluorophenyl)-β,δ-dihydroxy-5-(1-methylethyl)-3-phenyl-4-[(phenylamino)carbonyl]-1H-pyrrole-1-heptanoic acid] | – | approximately 30% | similar | the same
